# In ChEMBL document CHEMBL1124182, “Design, synthesis, and properties of (4S)-7-(4-amino-2-substituted-pyrrolidin-1-yl)quinolone-3-carboxylic acids” (J Med Chem, 1988):
# System: Acinetobacter
# Assay: In vitro Minimum inhibitory concentration against Acinetobacter CMX 669
# Assay type: functional
# Conditions: Acinetobacter; read-out: MIC
row,SMILES,MIC [µg/mL]
1,C[C@H]1C[C@H](N)CN1c1nc2c(cc1F)c(=O)c(C(=O)O)cn2-c1ccc(F)cc1F,0.1

# System: Staphylococcus epidermidis
# Assay: In vitro Minimum inhibitory concentration against Staphylococcus epidermidis 3519
# Assay type: functional
# Conditions: not given
row,SMILES,MIC [µg/mL]
1,C[C@H]1C[C@H](N)CN1c1nc2c(cc1F)c(=O)c(C(=O)O)cn2-c1ccc(F)cc1F,0.05

# System: Escherichia coli
# Assay: Supercoiling inhibition assay using purified DNA gyrase isolated from Escherichia coli H560
# Assay type: functional
# Conditions: read-out: I50
row,SMILES,IC50 [µg/mL]
1,C[C@H]1C[C@H](N)CN1c1nc2c(cc1F)c(=O)c(C(=O)O)cn2-c1ccc(F)cc1F,0.6

# System: Staphylococcus aureus
# Assay: In vitro Minimum inhibitory concentration against Staphylococcus aureus CMX 686B
# Assay type: functional
# Conditions: not given
row,SMILES,MIC [µg/mL]
1,C[C@H]1C[C@H](N)CN1c1nc2c(cc1F)c(=O)c(C(=O)O)cn2-c1ccc(F)cc1F,0.02

# System: Klebsiella pneumoniae
# Assay: In vitro Minimum inhibitory concentration against Klebsiella pneumoniae 8045
# Assay type: functional
# Conditions: not given
row,SMILES,MIC [µg/mL]
1,C[C@H]1C[C@H](N)CN1c1nc2c(cc1F)c(=O)c(C(=O)O)cn2-c1ccc(F)cc1F,0.02

# System: Mus musculus
# Assay: Blood level was evaluated at 24.0 hr when administered at a peroral dose of 25 mg/kg
# Assay type: functional
# Conditions: route oral
row,SMILES,Blood level [µg/mL]
1,C[C@H]1C[C@H](N)CN1c1nc2c(cc1F)c(=O)c(C(=O)O)cn2-c1ccc(F)cc1F,0.2

# System: Streptococcus agalactiae
# Assay: In vitro Minimum inhibitory concentration against Streptococcus agalactiae CMX 508
# Assay type: functional
# Conditions: not given
row,SMILES,MIC [µg/mL]
1,C[C@H]1C[C@H](N)CN1c1nc2c(cc1F)c(=O)c(C(=O)O)cn2-c1ccc(F)cc1F,0.2

# System: Streptococcus pyogenes
# Assay: In vitro Minimum inhibitory concentration against Streptococcus pyogenes 930
# Assay type: functional
# Conditions: not given
row,SMILES,MIC [µg/mL]
1,C[C@H]1C[C@H](N)CN1c1nc2c(cc1F)c(=O)c(C(=O)O)cn2-c1ccc(F)cc1F,0.2

# System: Staphylococcus aureus
# Assay: In vitro Minimum inhibitory concentration against Staphylococcus aureus A5177
# Assay type: functional
# Conditions: not given
row,SMILES,MIC [µg/mL]
1,C[C@H]1C[C@H](N)CN1c1nc2c(cc1F)c(=O)c(C(=O)O)cn2-c1ccc(F)cc1F,0.05

# System: Mus musculus
# Assay: In vivo efficacy against Staphylococcus aureus 10649, in mouse protection test when administered subcutaneously (sc)
# Assay type: functional
# Conditions: not given
row,SMILES,ED50 [mg/kg]
1,C[C@H]1C[C@H](N)CN1c1nc2c(cc1F)c(=O)c(C(=O)O)cn2-c1ccc(F)cc1F,0.9

# System: Escherichia coli
# Assay: In vitro Minimum inhibitory concentration against Escherichia coli Juhl
# Assay type: functional
# Conditions: not given
row,SMILES,MIC [µg/mL]
1,C[C@H]1C[C@H](N)CN1c1nc2c(cc1F)c(=O)c(C(=O)O)cn2-c1ccc(F)cc1F,0.02

# System: Staphylococcus aureus
# Assay: In vitro Minimum inhibitory concentration against Staphylococcus aureus 45
# Assay type: functional
# Conditions: not given
row,SMILES,MIC [µg/mL]
1,C[C@H]1C[C@H](N)CN1c1nc2c(cc1F)c(=O)c(C(=O)O)cn2-c1ccc(F)cc1F,0.05

# System: Pseudomonas aeruginosa
# Assay: In vitro Minimum inhibitory concentration against Pseudomonas aeruginosa K799/WT
# Assay type: functional
# Conditions: not given
row,SMILES,MIC [µg/mL]
1,C[C@H]1C[C@H](N)CN1c1nc2c(cc1F)c(=O)c(C(=O)O)cn2-c1ccc(F)cc1F,0.78

# System: Mus musculus
# Assay: Blood level was evaluated at 1.0 hr when administered at a peroral dose of 25 mg/kg
# Assay type: functional
# Conditions: route oral
row,SMILES,Blood level [µg/mL]
1,C[C@H]1C[C@H](N)CN1c1nc2c(cc1F)c(=O)c(C(=O)O)cn2-c1ccc(F)cc1F,3.2

# System: not listed separately
# Assay: Compound was evaluated for the solubility in Ringer's buffer solution
# Assay type: ADME
# Conditions: Ringer's buffer solution; read-out: Solubility
row,SMILES,solubility [µg/mL]
1,C[C@H]1C[C@H](N)CN1c1nc2c(cc1F)c(=O)c(C(=O)O)cn2-c1ccc(F)cc1F,150

# System: Pseudomonas aeruginosa
# Assay: In vitro Minimum inhibitory concentration against Pseudomonas aeruginosa 5007
# Assay type: functional
# Conditions: not given
row,SMILES,MIC [µg/mL]
1,C[C@H]1C[C@H](N)CN1c1nc2c(cc1F)c(=O)c(C(=O)O)cn2-c1ccc(F)cc1F,0.78

# System: Streptococcus equinus
# Assay: In vitro Minimum inhibitory concentration against Streptococcus bovis A5169
# Assay type: functional
# Conditions: not given
row,SMILES,MIC [µg/mL]
1,C[C@H]1C[C@H](N)CN1c1nc2c(cc1F)c(=O)c(C(=O)O)cn2-c1ccc(F)cc1F,0.2

# System: Mus musculus
# Assay: In vivo efficacy against Staphylococcus aureus 10649, in mouse protection test when administered perorally (po)
# Assay type: functional
# Conditions: not given
row,SMILES,ED50 [mg/kg]
1,C[C@H]1C[C@H](N)CN1c1nc2c(cc1F)c(=O)c(C(=O)O)cn2-c1ccc(F)cc1F,> 2.5

# System: Mus musculus
# Assay: In vivo efficacy against Escherichia coli Juhl, in mouse protection test when the administered perorally (po)
# Assay type: functional
# Conditions: not given
row,SMILES,ED50 [mg/kg]
1,C[C@H]1C[C@H](N)CN1c1nc2c(cc1F)c(=O)c(C(=O)O)cn2-c1ccc(F)cc1F,2.7

# System: Mus musculus
# Assay: Blood level was evaluated at 6.0 hr when administered at a peroral dose of 25 mg/kg
# Assay type: functional
# Conditions: route oral
row,SMILES,Blood level [µg/mL]
1,C[C@H]1C[C@H](N)CN1c1nc2c(cc1F)c(=O)c(C(=O)O)cn2-c1ccc(F)cc1F,1.3

# System: Mus musculus
# Assay: Blood level was evaluated at 2.0 hr when administered at a peroral dose of 25 mg/kg
# Assay type: functional
# Conditions: route oral
row,SMILES,Blood level [µg/mL]
1,C[C@H]1C[C@H](N)CN1c1nc2c(cc1F)c(=O)c(C(=O)O)cn2-c1ccc(F)cc1F,3.3

# System: Enterococcus faecium
# Assay: In vitro Minimum inhibitory concentration against Streptococcus faecium ATCC 8043
# Assay type: functional
# Conditions: not given
row,SMILES,MIC [µg/mL]
1,C[C@H]1C[C@H](N)CN1c1nc2c(cc1F)c(=O)c(C(=O)O)cn2-c1ccc(F)cc1F,0.1

# System: not listed separately
# Assay: Partition coefficient (logP)
# Assay type: physicochemical
# Conditions: octanol/water
row,SMILES,logP
1,C[C@H]1C[C@H](N)CN1c1nc2c(cc1F)c(=O)c(C(=O)O)cn2-c1ccc(F)cc1F,-0.2

# System: Mus musculus
# Assay: In vivo efficacy against Escherichia coli Juhl, in mouse protection test when administered subcutaneously (sc)
# Assay type: functional
# Conditions: not given
row,SMILES,ED50 [mg/kg]
1,C[C@H]1C[C@H](N)CN1c1nc2c(cc1F)c(=O)c(C(=O)O)cn2-c1ccc(F)cc1F,0.6

# System: Mus musculus
# Assay: Blood level was evaluated by a disk agar diffusion assay at 0.5 hr when administered at a peroral dose of 25 mg/kg
# Assay type: functional
# Conditions: route oral
row,SMILES,Blood level [µg/mL]
1,C[C@H]1C[C@H](N)CN1c1nc2c(cc1F)c(=O)c(C(=O)O)cn2-c1ccc(F)cc1F,5.9

# System: Mus musculus
# Assay: Blood level was evaluated at 3.0 hh when administered at a peroral dose of 25 mg/kg
# Assay type: functional
# Conditions: route oral
row,SMILES,Blood level [µg/mL]
1,C[C@H]1C[C@H](N)CN1c1nc2c(cc1F)c(=O)c(C(=O)O)cn2-c1ccc(F)cc1F,2.8

# System: Staphylococcus aureus
# Assay: In vitro Minimum inhibitory concentration against Staphylococcus aureus ATCC 6538P
# Assay type: functional
# Conditions: not given
row,SMILES,MIC [µg/mL]
1,C[C@H]1C[C@H](N)CN1c1nc2c(cc1F)c(=O)c(C(=O)O)cn2-c1ccc(F)cc1F,0.02
